From patent publication US10927123B2, “Modulators of the beta-3 adrenergic receptor useful for the treatment or prevention of disorders related thereto” (Arena Pharmaceuticals, Inc., priority 2016, dated 2021)
pIC50: −log10 of the molar value.

Biological target: Beta-3 Adrenergic Receptor (Homo sapiens (Human), UniProt P13945)
Experiment: HTRF cAMP antagonist assay (IC50 determination)
Format: cell-based
Conditions: CHO-K1 cells stably expressing recombinant receptor; antagonism of isoproterenol at EC90; cAMP readout
Method: HTRF cAMP assays were performed according to manufacturer's instructions (Cisbio, cAMP Dynamic 2 Assay Kit; #62AM4PEJ). CHO-K1 cells stably expressing recombinant receptor were harvested and suspended in warm PBS to make a 300,000 cells/mL stock. This cell suspension was dispensed into 384 well assay plates (PerkinElmer ProxiPlate #6008280) at 5 μL per well (1500 cells/well) along with a cAMP standard curve.
Compounds were dissolved and serially diluted (5-fold) in DMSO to generate a 10-point dose response stock. The stock was then diluted 100-fold in assay buffer (PBS containing 1 mM IBMX) before a volume of 2.5 μL was added to the cells (the final, top concentration of compound in the dose-response is typically 10 or 100 μM). After a brief incubation, 2.5 μL of isoproterenol stock, prepared at a concentration 4 times its EC90 at the receptor of interest, was added to the wells. The EC90 for isoproterenol, a beta-adrenergic agonist, was determined in separate experiments using standard methods to measure agonist potencies.
Following a 1-hour incubation at room temperature, 5 μL of cAMP-D2 Reagent diluted in Lysis Buffer was added to each well followed by 5 μL of Cryptate Reagent. Plates were further incubated at room temperature for 1 hour prior to reading. Time resolved fluorescence measurements were collected on a suitable, HTRF-capable plate reader.
Counts from the plate reader were fit to the cAMP standard curve on the assay plate in order to determine cAMP concentrations in each well, and these values were used to construct dose-response curves to obtain IC50 values.

Beta-3 Adrenergic Receptor, sequence (P13945 whole entry, species assumed): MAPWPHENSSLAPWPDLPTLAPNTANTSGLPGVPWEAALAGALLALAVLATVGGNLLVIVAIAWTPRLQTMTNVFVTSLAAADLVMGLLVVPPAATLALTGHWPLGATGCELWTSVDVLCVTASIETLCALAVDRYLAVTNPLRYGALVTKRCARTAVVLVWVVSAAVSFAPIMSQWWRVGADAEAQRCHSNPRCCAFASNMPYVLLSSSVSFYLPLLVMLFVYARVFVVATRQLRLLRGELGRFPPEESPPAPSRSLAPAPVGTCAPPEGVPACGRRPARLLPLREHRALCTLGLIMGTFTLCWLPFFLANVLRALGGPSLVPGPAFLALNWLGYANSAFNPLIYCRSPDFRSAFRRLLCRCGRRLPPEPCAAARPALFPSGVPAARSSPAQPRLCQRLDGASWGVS

Row | Compound | pIC50
1 | O=S(=O)(CC1CCC1)c1cccc(OC[C@@H](O)CNC2COC3(CCN(S(=O)(=O)c4ccc5ccccc5c4)CC3)C2)c1 (stereo partly drawn) [Compound 13, (2S)-1-(3-(cyclobutylmethylsulfonyl)phenoxy)-3-(8-(naphthalen-2-ylsulfonyl)-1-oxa-8-azaspiro[4.5]decan-3-ylamino)propan-2-ol] | 7.01
2 | O=S(=O)(CCCC(F)(F)F)c1cccc(OC[C@@H](O)CNC2COC3(CCN(S(=O)(=O)c4ccc5ccccc5c4)CC3)C2)c1 (stereo partly drawn) [Compound 14, (2S)-1-(8-(naphthalen-2-ylsulfonyl)-1-oxa-8-azaspiro[4.5]decan-3-ylamino)-3-(3-(4,4,4-trifluorobutylsulfonyl)phenoxy)propan-2-ol] | 7.25
3 | CCS(=O)(=O)c1cccc(OC[C@@H](O)CNC2COC3(CCN(S(=O)(=O)c4ccc5ccccc5c4)CC3)C2)c1 (stereo partly drawn) [Compound 15, (2S)-1-(3-(ethylsulfonyl)phenoxy)-3-(8-(naphthalen-2-ylsulfonyl)-1-oxa-8-azaspiro[4.5]decan-3-ylamino)propan-2-ol] | 8.24
4 | O=S(=O)(CC1CCCCC1)c1cccc(OC[C@@H](O)CNC2COC3(CCN(S(=O)(=O)c4ccc5ccccc5c4)CC3)C2)c1 (stereo partly drawn) [Compound 16, (2S)-1-(3-(cyclohexylmethylsulfonyl)phenoxy)-3-(8-(naphthalen-2-ylsulfonyl)-1-oxa-8-azaspiro[4.5]decan-3-ylamino)propan-2-ol] | 6.88
5 | O=S(=O)(CC1CC1(F)F)c1cccc(OC[C@@H](O)CNC2COC3(CCN(S(=O)(=O)c4ccc5ccccc5c4)CC3)C2)c1 (stereo partly drawn) [Compound 17, (2S)-1-(3-((2,2-difluorocyclopropyl)methylsulfonyl)phenoxy)-3-(8-(naphthalen-2-ylsulfonyl)-1-oxa-8-azaspiro[4.5]decan-3-ylamino)propan-2-ol] | 7.41
6 | O=S(=O)(c1cccc(OC[C@@H](O)CNC2COC3(CCN(S(=O)(=O)c4ccc5ccccc5c4)CC3)C2)c1)C1CCC1 (stereo partly drawn) [Compound 18, (2S)-1-(3-(cyclobutylsulfonyl)phenoxy)-3-(8-(naphthalen-2-ylsulfonyl)-1-oxa-8-azaspiro[4.5]decan-3-ylamino)propan-2-ol] | 7.31
7 | O=S(=O)(c1cccc(OC[C@@H](O)CNC2COC3(CCN(S(=O)(=O)c4ccc5ccccc5c4)CC3)C2)c1)C1CCCC1 (stereo partly drawn) [Compound 19, (2S)-1-(3-(cyclopentylsulfonyl)phenoxy)-3-(8-(naphthalen-2-ylsulfonyl)-1-oxa-8-azaspiro[4.5]decan-3-ylamino)propan-2-ol] | 7.18
8 | O=S(=O)(Cc1ccccc1)c1cccc(OC[C@@H](O)CNC2COC3(CCN(S(=O)(=O)c4ccc5ccccc5c4)CC3)C2)c1 (stereo partly drawn) [Compound 20, (2S)-1-(3-(benzylsulfonyl)phenoxy)-3-(8-(naphthalen-2-ylsulfonyl)-1-oxa-8-azaspiro[4.5]decan-3-ylamino)propan-2-ol] | 7.12
9 | O=S(=O)(c1cccc(OC[C@@H](O)CNC2COC3(CCN(S(=O)(=O)c4ccc5ccccc5c4)CC3)C2)c1)C1CNC1 (stereo partly drawn) [Compound 21, (2S)-1-(3-(azetidin-3-ylsulfonyl)phenoxy)-3-(8-(naphthalen-2-ylsulfonyl)-1-oxa-8-azaspiro[4.5]decan-3-ylamino)propan-2-ol] | 6.60
10 | NCCS(=O)(=O)c1cccc(OC[C@@H](O)CNC2COC3(CCN(S(=O)(=O)c4ccc5ccccc5c4)CC3)C2)c1 (stereo partly drawn) [Compound 22, (2S)-1-(3-(2-aminoethylsulfonyl)phenoxy)-3-(8-(naphthalen-2-ylsulfonyl)-1-oxa-8-azaspiro[4.5]decan-3-ylamino)propan-2-ol] | 6.52
11 | O=S(=O)(c1cccc(OC[C@@H](O)CNC2COC3(CCN(S(=O)(=O)c4ccc5ccccc5c4)CC3)C2)c1)C1COC1 (stereo partly drawn) [Compound 24, (2S)-1-(8-(naphthalen-2-ylsulfonyl)-1-oxa-8-azaspiro[4.5]decan-3-ylamino)-3-(3-(oxetan-3-ylsulfonyl)phenoxy)propan-2-ol] | 7.63
12 | CCC(C)S(=O)(=O)c1cccc(OC[C@@H](O)CNC2COC3(CCN(S(=O)(=O)c4ccc5ccccc5c4)CC3)C2)c1 (stereo partly drawn) [Compound 25, (2S)-1-(3-(sec-butylsulfonyl)phenoxy)-3-(8-(naphthalen-2-ylsulfonyl)-1-oxa-8-azaspiro[4.5]decan-3-ylamino)propan-2-ol] | 7.26
13 | CCS(=O)(=O)c1cccc(OC[C@@H](O)CN[C@H]2COC3(CCN(S(=O)(=O)c4ccc5ccccc5c4)CC3)C2)c1 [Compound 26, (S)-1-(3-(ethylsulfonyl)phenoxy)-3-((R)-8-(naphthalen-2-ylsulfonyl)-1-oxa-8-azaspiro[4.5]decan-3-ylamino)propan-2-ol] | 8.28
14 | O=S(=O)(CCO)c1cccc(OC[C@@H](O)CN[C@@H]2COC3(CCN(S(=O)(=O)c4ccc5ccccc5c4)CC3)C2)c1 [Compound 34, (S)-1-(3-(2-hydroxyethylsulfonyl)phenoxy)-3-((S)-8-(naphthalen-2-ylsulfonyl)-1-oxa-8-azaspiro[4.5]decan-3-ylamino)propan-2-ol] | 7.51
15 | O=S(=O)(CCO)c1cccc(OC[C@@H](O)CN[C@H]2COC3(CCN(S(=O)(=O)c4ccc5ccccc5c4)CC3)C2)c1 [Compound 35, (S)-1-(3-(2-hydroxyethylsulfonyl)phenoxy)-3-((R)-8-(naphthalen-2-ylsulfonyl)-1-oxa-8-azaspiro[4.5]decan-3-ylamino)propan-2-ol] | 7.69

More lines, now with the values ahead:

Row | pIC50 | Compound
16 | 6.62 | CS(=O)(=O)c1cccc(OC[C@H](O)CN[C@H]2COC3(CCN(S(=O)(=O)c4ccc5ccccc5c4)CC3)C2)c1 [Compound 23, (R)-1-(3-(methylsulfonyl)phenoxy)-3-((R)-8-(naphthalen-2-ylsulfonyl)-1-oxa-8-azaspiro[4.5]decan-3-ylamino)propan-2-ol]
17 | 7.71 | CCS(=O)(=O)c1cccc(OC[C@@H](O)CN[C@@H]2COC3(CCN(S(=O)(=O)c4ccc5ccccc5c4)CC3)C2)c1 [Compound 27, (S)-1-(3-(ethylsulfonyl)phenoxy)-3-((S)-8-(naphthalen-2-ylsulfonyl)-1-oxa-8-azaspiro[4.5]decan-3-ylamino)propan-2-ol]
18 | 7.73 | CS(=O)(=O)c1cccc(OC[C@@H](O)CNC2COC3(CCN(S(=O)(=O)c4ccc5c(c4)CCCO5)CC3)C2)c1 (stereo partly drawn) [Compound 28, (2S)-1-(8-(chroman-6-ylsulfonyl)-1-oxa-8-azaspiro[4.5]decan-3-ylamino)-3-(3-(methylsulfonyl)phenoxy)propan-2-ol]
19 | 7.79 | CS(=O)(=O)c1cccc(OC[C@@H](O)CNC2COC3(CCN(S(=O)(=O)c4ccc5c(c4)CCCC5)CC3)C2)c1 (stereo partly drawn) [Compound 29, (2S)-1-(3-(methylsulfonyl)phenoxy)-3-(8-(5,6,7,8-tetrahydronaphthalen-2-ylsulfonyl)-1-oxa-8-azaspiro[4.5]decan-3-ylamino)propan-2-ol]
20 | 7.46 | CS(=O)(=O)c1cccc(OC[C@@H](O)CNC2COC3(CCN(S(=O)(=O)c4ccc(Cl)c5nonc45)CC3)C2)c1 (stereo partly drawn) [Compound 30, (2S)-1-(8-(7-chlorobenzo[c][1,2,5]oxadiazol-4-ylsulfonyl)-1-oxa-8-azaspiro[4.5]decan-3-ylamino)-3-(3-(methylsulfonyl)phenoxy)propan-2-ol]
21 | 7.31 | CS(=O)(=O)c1cccc(OC[C@@H](O)CNC2COC3(CCN(S(=O)(=O)c4cccc(Cl)c4)CC3)C2)c1 (stereo partly drawn) [Compound 31, (2S)-1-(8-(3-chlorophenylsulfonyl)-1-oxa-8-azaspiro[4.5]decan-3-ylamino)-3-(3-(methylsulfonyl)phenoxy)propan-2-ol]
22 | 7.68 | CN1CCOc2ccc(S(=O)(=O)N3CCC4(CC3)CC(NC[C@H](O)COc3cccc(S(C)(=O)=O)c3)CO4)cc21 (stereo partly drawn) [Compound 32, (2S)-1-(8-(4-methyl-3,4-dihydro-2H-benzo[b][1,4]oxazin-6-ylsulfonyl)-1-oxa-8-azaspiro[4.5]decan-3-ylamino)-3-(3-(methylsulfonyl)phenoxy)propan-2-ol]
23 | 6.72 | CS(=O)(=O)c1cccc(OC[C@H](O)CN[C@@H]2COC3(CCN(S(=O)(=O)c4ccc5ccccc5c4)CC3)C2)c1 [Compound 33, (R)-1-(3-(methylsulfonyl)phenoxy)-3-((S)-8-(naphthalen-2-ylsulfonyl)-1-oxa-8-azaspiro[4.5]decan-3-ylamino)propan-2-ol]
24 | 7.67 | CCn1cc(-c2cccc(S(=O)(=O)N3CCC4(CC3)CC(NC[C@H](O)COc3cccc(S(C)(=O)=O)c3)CO4)c2)cn1 (stereo partly drawn) [Compound 36, (2S)-1-(8-(3-(1-ethyl-1H-pyrazol-4-yl)phenylsulfonyl)-1-oxa-8-azaspiro[4.5]decan-3-ylamino)-3-(3-(methylsulfonyl)phenoxy)propan-2-ol]
25 | 8.03 | CS(=O)(=O)c1cccc(OC[C@@H](O)CNC2COC3(CCN(S(=O)(=O)c4cccc(-c5cn[nH]c5)c4)CC3)C2)c1 (stereo partly drawn) [Compound 37, (2S)-1-(8-(3-(1H-pyrazol-4-yl)phenylsulfonyl)-1-oxa-8-azaspiro[4.5]decan-3-ylamino)-3-(3-(methylsulfonyl)phenoxy)propan-2-ol]
26 | 8.40 | CCCn1cc(-c2cccc(S(=O)(=O)N3CCC4(CC3)CC(NC[C@H](O)COc3cccc(S(C)(=O)=O)c3)CO4)c2)cn1 (stereo partly drawn) [Compound 38, (2S)-1-(3-(methylsulfonyl)phenoxy)-3-(8-(3-(1-propyl-1H-pyrazol-4-yl)phenylsulfonyl)-1-oxa-8-azaspiro[4.5]decan-3-ylamino)propan-2-ol]
